Reference: US20020035061A1, “COMPOSITIONS AND METHODS FOR TREATING INFECTIONS USING CATIONIC PEPTIDES ALONE OR IN COMBINATION WITH ANTIBIOTICS” (priority 1996, published 2002)

Legend:
[1] = test system: P. mirabilis; experiment: Agarose dilution assay (MIC); assay type: cell-based; details: P. mirabilis PM002
[2] = test system: Candida; experiment: Agarose dilution assay (MIC) against Candida; assay type: cell-based
[3] = test system: various bacterial strains; experiment: Broth dilution assay (MIC); assay type: cell-based
Procedure: Typically 100 μl of calcium and magnesium supplemented Mueller Hinton broth is dispensed into each well of a 96-well microtitre plate and 100 μl volumes of two-fold serial dilutions of the peptide are prepared across the plate. One row of wells receives no peptide and is used as a growth control. Each well is inoculated with approximately 5×10^5 CFU of bacteria and the plate is incubated at 35-37° C. for 16-20 hours.
For example, MIC values in μg/ml are established by broth dilution assay (Table 13) or by agarose dilution assay (Table 14) for a series of cationic peptides against various bacterial strains.

[4] = test system: E. coli strain ML-35 inner membrane; assay type: cell-based; details: cells pre-incubated with valinomycin
[5] = test system: S. epidermidis (ATCC # 12228); experiment: In vivo efficacy, S. epidermidis infection; details: iv
[6] = test system: H460, non-small lung tumor; experiment: Cell death by Cytotox (Promega) lactate dehydrogenase release; assay type: cell-based; details: LDH release
Procedure: (§1) In addition, APO-peptides and parent peptides are tested against a panel of cancer cell lines. Cell death is measured using the Cytotox (Promega) assay kit which measures the release of lactate dehydrogenase.
(§2) PBL, peripheral blood lymphocytes; HUVEC, human umbilical vein endothelial cells; H460,non-small lung tumor; K562, chronic myelogenous leukemia; DoHH-2, B-cell cell lymphoma; P388, lymphocytic leukemia; P388ADR, lymphocytic leukemia, multidrug resistant; MCF-7, breast carcinoma; MCF-7ADR, breast carcinoma, multidrug resistant.

[7] = test system: HUVEC, human umbilical vein endothelial cells; experiment: as above; assay type: cell-based; details: LDH release
Procedure: as §1, §2

[8] = test system: MCF-7, breast carcinoma; experiment: as above; assay type: cell-based; details: LDH release
Procedure: as §1, §2

[9] = test system: MCF-7ADR, breast carcinoma, multidrug resistant; experiment: as above; assay type: cell-based; details: LDH release
Procedure: as §1, §2

[10] = test system: P388, lymphocytic leukemia; experiment: as above; assay type: cell-based; details: LDH release
Procedure: as §1, §2

[11] = test system: P388ADR, lymphocytic leukemia, multidrug resistant; experiment: as above; assay type: cell-based; details: LDH release
Procedure: as §1, §2

[12] = test system: PBL, peripheral blood lymphocytes; experiment: as above; assay type: cell-based; details: LDH release
Procedure: as §1, §2

Sequence: ILKKWPWWPWRRK [MBI 11CN]
- MIC [1]: >128 µg/mL
- MIC ([2]; C. albicans CA001): 128 µg/mL
- MIC ([2]; C. albicans CA002): 64 µg/mL
- MIC ([2]; C. albicans CA003): 128 µg/mL
- MIC ([2]; C. albicans CA004): 64 µg/mL
- MIC ([2]; C. albicans CA005): 128 µg/mL
- MIC ([2]; C. albicans CA006): 128 µg/mL
- MIC ([2]; C. albicans CA007): 128 µg/mL
- MIC ([2]; C. albicans CA008): 64 µg/mL
- MIC ([2]; C. albicans CA009): 64 µg/mL
- MIC ([2]; C. albicans CA010): 128 µg/mL
- MIC ([2]; C. albicans CA011): 64 µg/mL
- MIC ([2]; C. albicans CA012): 128 µg/mL
- MIC ([2]; C. albicans CA013): 128 µg/mL
- MIC ([2]; C. albicans CA014): 64 µg/mL
- MIC ([2]; C. albicans CA015): 128 µg/mL
- MIC ([2]; C. albicans CA016): 128 µg/mL
- MIC ([2]; C. albicans CA017): 128 µg/mL
- MIC ([2]; C. albicans CA018): 128 µg/mL
- MIC ([2]; C. albicans CA019): 128 µg/mL
- MIC ([2]; C. albicans CA020): 128 µg/mL
- MIC ([2]; C. albicans CA021): 128 µg/mL
- MIC ([2]; C. albicans CA022): 32 µg/mL
- MIC ([2]; C. albicans CA023): 128 µg/mL
- MIC ([2]; C. albicans CA024): 16 µg/mL
- MIC ([2]; C. glabrata CGL001): >128 µg/mL
- MIC ([2]; C. glabrata CGL002): >128 µg/mL
- MIC ([2]; C. glabrata CGL003): >128 µg/mL
- MIC ([2]; C. glabrata CGL004): >128 µg/mL
- MIC ([2]; C. glabrata CGL005): >128 µg/mL
- MIC ([2]; C. glabrata CGL009): >128 µg/mL
- MIC ([2]; C. glabrata CGL010): >128 µg/mL
- MIC ([2]; C. krusei CKR001): 0.5 µg/mL
- MIC ([2]; C. tropicalis CTR001): 4 µg/mL
- MIC ([2]; C. tropicalis CTR002): 4 µg/mL
- MIC ([2]; C. tropicalis CTR003): 8 µg/mL
- MIC ([2]; C. tropicalis CTR004): 4 µg/mL
- MIC ([2]; C. tropicalis CTR005): 4 µg/mL
- MIC ([2]; C. tropicalis CTR006): 16 µg/mL
- MIC ([2]; C. tropicalis CTR007): 16 µg/mL
- MIC ([2]; C. tropicalis CTR008): 8 µg/mL
- MIC ([2]; C. tropicalis CTR009): 8 µg/mL
- MIC ([3]; A. calcoaceticus 8191): 256 µg/mL
- MIC ([3]; E. cloacae 13047): >128 µg/mL
- MIC ([3]; E. coli 25922): 128 µg/mL
- MIC ([3]; E. coli DH1): 64 µg/mL
- MIC ([3]; E. coli ECO003): 64 µg/mL
- MIC ([3]; E. coli KL4): 64 µg/mL
- MIC ([3]; E. faecalis 29212): 64 µg/mL
- MIC ([3]; K. pneumoniae 13883): >128 µg/mL
- MIC ([3]; K. pneumoniae B44): 64 µg/mL
- MIC ([3]; P. aeruginosa 27853): >128 µg/mL
- MIC ([3]; P. aeruginosa 8509041): 256 µg/mL
- MIC ([3]; P. aeruginosa 9308077): 128 µg/mL
- MIC ([3]; P. aeruginosa 9503024): >256 µg/mL
- MIC ([3]; P. aeruginosa H650): 256 µg/mL
- MIC ([3]; P. aeruginosa H652): 256 µg/mL
- MIC ([3]; S. aureus 25923): 32 µg/mL
- MIC ([3]; S. aureus 27217): 64 µg/mL
- MIC ([3]; S. aureus 29213): 32 µg/mL
- MIC ([3]; S. aureus 33593): 64 µg/mL
- MIC ([3]; S. aureus 8402093): 32 µg/mL
- MIC ([3]; S. aureus 8809014): 32 µg/mL
- MIC ([3]; S. aureus 8809025): 64 µg/mL
- MIC ([3]; S. epidermidis 14990): 8 µg/mL
- MIC ([3]; S. maltophilia 13637): 128 µg/mL
- MIC ([3]; S. maltophilia H361): 64 µg/mL
- MIC ([3]; S. marcescens 13880): >128 µg/mL
- MIC ([3]; S. marcescens B21): >256 µg/mL
- ONPG hydrolysis diminished compared to no pre-incubation [4]: approximately 50%
- efficacy ([5]; 30 minutes post-infection): less activity
- efficacy ([5]; 60 minutes post-infection): no significant effect
- survival of the mice ([5]; formulation D): prolongs the survival of the mice
- efficacy ([5]; treatment 15 minutes post-infection): Efficacy is observed at all three dose levels
- LC50 ± S.E., H460 [6]: 200 µg/mL
- LC50 ± S.E., HUVEC [7]: >190 µg/mL
- LC50 ± S.E., MCF-7 [8]: 11.8 ± 9 µg/mL
- LC50 ± S.E., MCF-7 ADR [9]: 17 ± 1 µg/mL
- LC50 ± S.E., P388 [10]: 30 µg/mL
- LC50 ± S.E., P388 ADR [11]: 25 µg/mL
- LC50 ± S.E., PBL [12]: 57 µg/mL
